Residual activity data for 38 compounds are collected here from ChEMBL document CHEMBL3039007, “Structure-based identification of OATP1B1/3 inhibitors” (Mol Pharmacol, 2013).

The target in data set [1] is T1, Solute carrier organic anion transporter family member 1B1 (Homo sapiens, UniProt Q9Y6L6).
T1 sequence (Q9Y6L6 whole entry): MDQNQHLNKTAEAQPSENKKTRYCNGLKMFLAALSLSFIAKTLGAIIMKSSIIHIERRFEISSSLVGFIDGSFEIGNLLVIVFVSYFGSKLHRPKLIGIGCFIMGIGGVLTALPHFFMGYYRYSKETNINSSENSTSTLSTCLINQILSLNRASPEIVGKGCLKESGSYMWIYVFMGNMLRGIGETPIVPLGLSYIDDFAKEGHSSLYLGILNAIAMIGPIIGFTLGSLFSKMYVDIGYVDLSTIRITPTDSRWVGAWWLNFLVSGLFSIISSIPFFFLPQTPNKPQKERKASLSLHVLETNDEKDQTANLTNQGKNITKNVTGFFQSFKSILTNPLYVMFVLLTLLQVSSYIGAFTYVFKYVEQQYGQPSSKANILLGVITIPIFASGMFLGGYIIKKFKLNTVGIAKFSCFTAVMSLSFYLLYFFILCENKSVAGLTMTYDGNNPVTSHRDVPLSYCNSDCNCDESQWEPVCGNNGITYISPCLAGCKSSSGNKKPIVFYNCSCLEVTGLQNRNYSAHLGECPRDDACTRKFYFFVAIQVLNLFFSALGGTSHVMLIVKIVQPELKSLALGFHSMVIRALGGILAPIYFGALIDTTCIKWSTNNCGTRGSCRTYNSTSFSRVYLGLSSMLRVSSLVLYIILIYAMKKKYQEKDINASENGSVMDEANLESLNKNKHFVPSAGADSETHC
Conditions: chinese hamster, cho, 10 µM.

Data set [2] deals with T2, Solute carrier organic anion transporter family member 1B3 (Homo sapiens, UniProt Q9NPD5).
T2 sequence (Q9NPD5 whole entry): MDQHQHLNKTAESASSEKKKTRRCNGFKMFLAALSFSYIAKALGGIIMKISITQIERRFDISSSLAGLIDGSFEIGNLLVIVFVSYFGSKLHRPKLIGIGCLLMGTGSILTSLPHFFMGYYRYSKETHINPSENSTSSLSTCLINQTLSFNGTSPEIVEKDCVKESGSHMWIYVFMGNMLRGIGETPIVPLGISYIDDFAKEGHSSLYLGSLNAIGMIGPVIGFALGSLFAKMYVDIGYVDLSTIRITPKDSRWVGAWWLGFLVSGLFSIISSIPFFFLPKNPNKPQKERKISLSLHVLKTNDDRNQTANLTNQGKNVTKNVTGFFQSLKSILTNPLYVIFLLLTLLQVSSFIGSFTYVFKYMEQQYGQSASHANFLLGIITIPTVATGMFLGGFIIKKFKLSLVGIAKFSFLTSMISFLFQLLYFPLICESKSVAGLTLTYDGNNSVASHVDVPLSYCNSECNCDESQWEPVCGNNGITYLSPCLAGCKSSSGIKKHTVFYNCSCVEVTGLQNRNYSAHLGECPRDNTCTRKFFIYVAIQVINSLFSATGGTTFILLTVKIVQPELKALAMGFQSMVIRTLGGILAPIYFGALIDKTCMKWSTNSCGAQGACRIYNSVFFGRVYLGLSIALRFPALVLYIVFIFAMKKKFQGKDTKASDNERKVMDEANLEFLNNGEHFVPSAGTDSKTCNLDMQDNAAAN
Particulars: chinese hamster, cho, 10 µM.

As a reminder, the residual activity is the signal under treatment as a percentage of the control signal.

Turning to `Cc1cc(C2CCCCC2)n(O)c(=O)c1.NCCO` [CICLOPIROX OLAMINE], the values for the residual activity in data set [1] and in data set [2] were 129.1% and 106%, respectively.

Regarding `CCCCOc1ccc(CC(=O)NO)cc1` [BUFEXAMAC], the results for the residual activity in data set [1] and in data set [2] were 89.04% and 92.18%, respectively.

For `Cc1cc(O)cc(O)c1C(=O)O` [ORSELLINIC ACID], the residual activity in data set [1] came to 66.07%; in data set [2] it was 86.96%.

Regarding `CC1(C)O[C@@H]2C[C@H]3[C@@H]4CCC5=CC(=O)C=C[C@]5(C)[C@@]4(F)[C@@H](O)C[C@]3(C)[C@]2(C(=O)CO)O1` [TRIAMCINOLONE ACETONIDE], the residual activity stood at 128.1% in data set [1] and 115.5% in data set [2].

Turning to `CC(=O)N[C@@H](CCC(=O)O)C(=O)O`, the values for the residual activity in data set [1] and in data set [2] were 59.95% and 77.8%, respectively.

For `CC(=O)O[C@@H]1C=C[C@]2(C)C(C[C@@H](OC(C)=O)[C@]3(C)C4=CC(=O)O[C@H](c5ccoc5)[C@@]4(C)CCC23)C1(C)C` (stereo partly specified) [DEOXYGEDUNOL ACETATE], the residual activity in data set [1] is recorded as 23.25%; in data set [2], 49.18%.

Consider `CC(=O)O[C@H]1CC[C@]2(C)[C@H]3CC=C4[C@@H]5CC(C)(C)CC[C@]5(C)CC[C@@]4(C)[C@]3(C)CC[C@H]2C1(C)C` [beta-AMYRIN ACETATE], for which the results for the residual activity in data set [1] and in data set [2] were 113% and 110%, respectively.

Take `COc1ccc([C@H]2COc3c(ccc(O)c3OC)C2)c(OC)c1O` [DUARTIN (-)]: the residual activity in data set [1] is 88.51%; in data set [2] it was 86.99%.

Consider `Oc1cc(O)c2c(c1)O[C@H](c1ccc(O)c(O)c1)[C@H](O)C2` [(-)-EPICATECHIN], for which the residual activity in data set [1] amounted to 80.37%; in data set [2], 77.92%.

Consider `O=c1cc(-c2ccccc2)oc2cc(O)c(O)c(O)c12` [BAICALEIN], for which the residual activity is reported as 91.06% in data set [1] and 90.2% in data set [2].

With `CC(C)(C)NCC(O)c1cc(Cl)c(N)c(Cl)c1.Cl` (stereo unspecified) [CLENBUTEROL HYDROCHLORIDE], the residual activity in data set [1] worked out at 78.76%; in data set [2] it was 99.43%.

With `CC(=O)O[C@H]1C[C@@H](OC(C)=O)C(C)(C)[C@@H]2C[C@@H](OC(C)=O)[C@]3(C)[C@H](CC[C@@]4(C)[C@H](c5ccoc5)OC(=O)[C@H]5O[C@@]534)[C@@]12C` [KHIVORIN], the results for the residual activity in data set [1] and in data set [2] were 77.22% and 94.96%, respectively.

Turning to `CC(=O)NC1CCSC1=O` (stereo unspecified) [CITIOLONE], the residual activity in data set [1] was determined as 110.6%; in data set [2] it was 92.74%.

Consider `C[C@]12CC[C@H](O)C[C@H]1CC[C@@H]1[C@@H]2[C@H](O)C[C@]2(C)[C@@H](C3=CC(=O)OC3)CC[C@]12O` [SARMENTOGENIN], for which the residual activity in data set [1] is 70.58%; in data set [2], 105.8%.

Regarding `O=C(O)c1ccc(S(=O)(=O)N(Cl)Cl)cc1` [HALAZONE], the residual activity came to 97.95% in data set [1] and 84.35% in data set [2].

For `N=C(N)N` [GUANIDINE], the figures for the residual activity in data set [1] and in data set [2] were 106.5% and 100%, respectively.

In the case of `COc1cc(NS(=O)(=O)c2ccc(N)cc2)nc(OC)n1` [SULFADIMETHOXINE], the residual activity amounted to 118.7% in data set [1] and 103% in data set [2].

In the case of `C=CCSCC1Nc2cc(Cl)c(S(N)(=O)=O)cc2S(=O)(=O)N1` (stereo unspecified) [ALTHIAZIDE], the results for the residual activity in data set [1] and in data set [2] were 107.1% and 95.11%, respectively.

In the case of `CC[C@H](/C=C/[C@@H](C)[C@H]1CC[C@H]2[C@@H]3CCC4=CC(=O)CC[C@]4(C)[C@H]3CC[C@]12C)C(C)C`, the residual activity is given as 89.99% in data set [1] and 88.84% in data set [2].

On to `COC(=O)N/N=C/c1c[n+]([O-])c2ccccc2[n+]1[O-]` [CARBADOX], for which the figures for the residual activity in data set [1] and in data set [2] were 84.43% and 107.6%, respectively.

On to `CC(C)C(=O)Nc1ccc([N+](=O)[O-])c(C(F)(F)F)c1` [FLUTAMIDE], for which the results for the residual activity in data set [1] and in data set [2] were 130.9% and 133.6%, respectively.

With `CC(N/C(=N\C#N)Nc1ccncc1)C(C)(C)C` (stereo unspecified) [PINACIDIL ANHYDROUS], the residual activity in data set [1] was determined as 96.43%; in data set [2] it was 90.66%.

In the case of `CCN(CC)CCCC(C)Nc1c2ccc(Cl)cc2nc2ccc(OC)cc12.Cl.Cl.O.O` (stereo unspecified) [QUINACRINE HYDROCHLORIDE], the residual activity in data set [1] came out at 83.49%; in data set [2], 95.69%.

With `CC(=O)Nc1cccc(O)c1` [METACETAMOL], the residual activity in data set [1] was 66.39%; in data set [2], 79.17%.

Regarding `N#C/C(=C\c1cccc(O)c1)C(=O)O` [alpha-CYANO-3-HYDROXYCINNAMIC ACID], the results for the residual activity in data set [1] and in data set [2] were 102.6% and 89.69%, respectively.

For `C[C@]12CCC(=O)C=C1CC[C@@H]1[C@@H]2[C@@H](O)C[C@@]2(C)[C@H]1CC[C@]2(O)C(=O)COC(=O)CCC(=O)O` [HYDROCORTISONE HEMISUCCINATE ANHYDROUS], the results for the residual activity in data set [1] and in data set [2] were 93.98% and 101.8%, respectively.

Take `C=C1CCC2C(CC2(C)C)C(=C)CC/C1=N/O` (stereo unspecified) [5-HYDROXYIMINOISOCARYOPHYLLENE]: the residual activity in data set [1] is 84.7%; in data set [2] it was 80.99%.

Consider `Cc1nccc2c1[nH]c1ccccc12` [HARMAN], for which the figures for the residual activity in data set [1] and in data set [2] were 81.51% and 99.56%, respectively.

On to `CCc1cccc2c3c([nH]c12)C(CC)(CC(=O)O)OCC3` (stereo unspecified) [ETODOLAC], for which the figures for the residual activity in data set [1] and in data set [2] were 68.27% and 103.6%, respectively.

For the compound `Cc1ccc(S(=O)(=O)NC(=O)NN2CC3CCCC3C2)cc1` (stereo unspecified) [GLICLAZIDE], the residual activity in data set [1] is 106.3%; in data set [2], 113.3%.

As for `CCCCCCCCNC(C)C(O)c1ccc(SC(C)C)cc1` (stereo unspecified) [SULOCTIDIL], the residual activity is listed as 143.8% in data set [1] and 108.7% in data set [2].

With `COc1ccc(C(=O)CC(=O)c2ccc(C(C)(C)C)cc2)cc1` [AVOBENZONE], the residual activity worked out at 124% in data set [1] and 103% in data set [2].

`CCC1(CC)C(=O)C=CNC1=O` [PYRITHYLDIONE]: the residual activity in data set [1] is 106.5%; in data set [2] it was 101.3%.

For `COC(=O)CC[C@@H](C)[C@H]1CC[C@H]2[C@@H]3CC[C@@H]4C[C@H](O)CC[C@]4(C)[C@H]3C[C@H](O)[C@]12C` [METHYL DEOXYCHOLATE], the residual activity is reported as 62.17% in data set [1] and 71.46% in data set [2].

For `COc1cc([C@@H]2c3cc4c(cc3[C@H](O)[C@H]3COC(=O)[C@H]23)OCO4)cc(OC)c1OC` [PODOFILOX], the residual activity in data set [1] was 63.87%; in data set [2] it was 95.19%.

For `CCCn1c(=O)c2[nH]c(C3CCCC3)nc2n(CCC)c1=O` [1,3-DIPROPYL-8-CYCLOPENTYLXANTHINE [DPCPX]], the residual activity in data set [1] is reported as 264.1%; in data set [2], 117.3%.

In the case of `CC(=O)c1c(O)cc(O)cc1O` [2,4,6-TRIHYDROXYACETOPHENONE], the residual activity worked out at 72.12% in data set [1] and 92.98% in data set [2].

As to `C=C1C2=CC(=O)O[C@@H](c3ccoc3)[C@]2(C)CCC1[C@@]1(C)C=CC(=O)C(C)(C)[C@@H]1CC(=O)OC` (stereo partly specified) [DEOXYANDIROBIN], the residual activity in data set [1] is given as 27.69%; in data set [2], 42.8%.
